In patent publication EP1142881A1, “POLY(ADP-RIBOSE) POLYMERASE INHIBITORS CONSISTING OF PYRIMIDINE DERIVATIVES” (Meiji Seika Kaisha, Ltd., priority 1999, dated 2000):

Each compound was assayed against T1, PARP (Rattus norvegicus, UniProt P27008) (assay: Measurement of PARP enzyme activity). Conditions: soluble nuclear fraction of Wistar rat forebrain as enzyme source; 250 µM NAD, 32P-NAD; 37°C for 30 minutes; 6 concentrations; read-out: PARP inhibitory activity IC50.
T1 construct: Nucleus obtained by centrifugation was extracted with 0.4 M NaCl and the resulting soluble fraction was used as a source of PARP enzyme; from tissue; host or cells: Wistar rat forebrain, nuclear 0.4 M NaCl soluble fraction
Type: biochemical, Wistar rats
Protocol: Test method: The forebrain was collected from Wistar rats and homogenized. Nucleus obtained by centrifugation was extracted with 0.4 M NaCl and the resulting soluble fraction was used as a source of PARP enzyme source. […] Incubation was carried out at 37°C for 30 minutes, and then the reaction was stopped with 20%trichloroacetic acid. The acid-insoluble fraction produced above was adsorbed to a GF/B filter, and the filter was washed several times, and then radioactivity on the filter was measured by using a liquid scintillation counter. The PARP activity was measured by subtracting radioactivity as a blank value of a sample not added with the enzyme source. […]

T1 sequence (P27008 whole entry): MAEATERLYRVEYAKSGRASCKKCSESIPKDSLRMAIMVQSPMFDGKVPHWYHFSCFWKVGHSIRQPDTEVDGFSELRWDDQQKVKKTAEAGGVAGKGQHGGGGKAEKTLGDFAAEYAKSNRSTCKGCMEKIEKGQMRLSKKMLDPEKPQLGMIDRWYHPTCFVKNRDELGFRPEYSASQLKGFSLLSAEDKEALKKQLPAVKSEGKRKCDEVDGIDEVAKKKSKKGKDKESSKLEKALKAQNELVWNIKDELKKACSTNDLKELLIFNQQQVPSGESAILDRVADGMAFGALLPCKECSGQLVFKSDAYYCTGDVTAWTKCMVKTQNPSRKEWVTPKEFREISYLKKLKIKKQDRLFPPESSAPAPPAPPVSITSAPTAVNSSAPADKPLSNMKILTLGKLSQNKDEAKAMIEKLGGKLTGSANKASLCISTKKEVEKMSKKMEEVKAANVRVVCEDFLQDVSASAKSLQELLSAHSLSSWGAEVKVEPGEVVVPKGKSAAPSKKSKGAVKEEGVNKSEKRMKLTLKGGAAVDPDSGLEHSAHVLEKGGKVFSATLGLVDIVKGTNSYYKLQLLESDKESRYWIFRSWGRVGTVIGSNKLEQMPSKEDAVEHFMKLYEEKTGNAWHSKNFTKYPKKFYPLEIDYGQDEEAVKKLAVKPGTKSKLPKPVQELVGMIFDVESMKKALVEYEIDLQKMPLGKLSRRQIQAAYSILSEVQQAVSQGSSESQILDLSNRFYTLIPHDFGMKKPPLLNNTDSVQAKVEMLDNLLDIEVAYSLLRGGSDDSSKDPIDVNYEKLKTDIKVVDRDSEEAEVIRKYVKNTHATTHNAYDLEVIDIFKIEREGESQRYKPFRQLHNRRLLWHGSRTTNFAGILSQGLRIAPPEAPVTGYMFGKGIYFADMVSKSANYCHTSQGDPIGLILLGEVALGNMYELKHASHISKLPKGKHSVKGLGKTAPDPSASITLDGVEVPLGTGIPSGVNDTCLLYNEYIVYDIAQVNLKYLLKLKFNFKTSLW

| SMILES | IC50 [nM] |
| --- | --- |
| C=C1CCCc2c1nc(C)[nH]c2=O [Example 21(A), 2-Methyl-8-methylene-5,6,7,8-tetrahydro-3H-quinazolin-4-one] | 350 |
| COCC=C1CSCc2c1nc(C)[nH]c2=O [Example 39, 8-(2-Methoxyethylidene)-2-methyl-3,5,7,8-tetrahydrothiopyrano-[4,3-d]pyrimidin-4-one] | 440 |

Second part, the compound after the results:

| IC50 [nM] | SMILES |
| --- | --- |
| 250 | C=C1CSCc2c1nc(C)[nH]c2=O [Example 20, 2-Methyl-8-methylene-3,5,7,8-tetrahydrothiopyrano[4,3-d]pyrimidin-4-one] |
| 410 | O=c1[nH]c(-c2ccccc2)nc2c1CSCC2 [Example 4, 2-Phenyl-3,5,7,8-tetrahydrothiopyrano[4,3-d]pyrimidin-4-one] |
| 1460 | O=c1[nH]cnc2c1CSCC2 [Example 3, 3,5,7,8-Tetrahydrothiopyrano[4,3-d]pyrimidin-4-one] |
